We go through 23 compounds from PubChem BioAssay (NCI).

The structures appear in SMILES notation.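 1) Cells in 96-well plates. 2) Compound, 48 h, 5 concentrations. 3) Linear interpolation between surrounding doses. 4) Unreached endpoint = highest concentration. The concentration for 50% growth inhibition is given as GI50. At the TGI there is no net growth.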

Test systems include KM12 colon; K-562 leukemia; OVCAR-5 ovarian; HCT-15 colon; SF-539 CNS; HCT-116 colon; SF-295 CNS; M14 melanoma; A549 NSCLC.
Common to all, as to test: DTP human tumour cell line panel, 48 h

Turning to `CN(Cc1ccccc1)C1(N(C)Cc2ccccc2)CC1`, the total growth inhibition concentration (TGI) with KM12 colon, in the assay on K-562 leukemia, with OVCAR-5 ovarian, in the assay on HCT-15 colon, in the assay with SF-539 CNS and in the assay on HCT-116 colon was more than 100 µM throughout. The TGI in the assay with SF-295 CNS, in the assay with M14 melanoma and in the assay on A549 NSCLC was more than 100 µM each time.
Consider `C1C[OH+]CC[OH+]CC[OH+]CC[OH+]CC[OH+]CC[OH+]1.[Cl-].[Ta+5]`, for which the GI50 in the assay with KM12 colon, in the assay with K-562 leukemia, in the assay with HCT-15 colon, in the assay with SF-539 CNS, in the assay with HCT-116 colon and in the assay with SF-295 CNS was more than 100 µM in each case. In addition, the GI50 in the assay with M14 melanoma and in the assay with A549 NSCLC was more than 100 µM each time. The TGI in the assay with KM12 colon, with K-562 leukemia, in the assay with HCT-15 colon, in the assay on SF-539 CNS, in the assay with HCT-116 colon and in the assay with SF-295 CNS was more than 100 µM each time. Further, the concentration for total growth inhibition (TGI) in the assay on M14 melanoma and in the assay on A549 NSCLC was more than 100 µM throughout.
`CCOC(=O)C1(C(=O)OCC)CC=C(C)CC12C(=O)Nc1ccccc12` (centres undefined): the TGI in the assay on KM12 colon, in the assay on K-562 leukemia, with OVCAR-5 ovarian, with HCT-15 colon, in the assay with SF-539 CNS and with HCT-116 colon was more than 100 µM throughout. Further, the TGI in the assay on SF-295 CNS, with M14 melanoma and with A549 NSCLC was more than 100 µM each time.
With `C=CCC(C)(C(=O)NCCC)C(=O)c1ccccc1O` (centres undefined), the concentration for total growth inhibition (TGI) in the assay with KM12 colon, in the assay on K-562 leukemia, in the assay with HCT-15 colon, with SF-539 CNS, in the assay with HCT-116 colon and with M14 melanoma was more than 100 µM in each case. This compound returned a TGI in the assay on A549 NSCLC of more than 100 µM.
As for `CCCCCCCCCC(=O)N[C@H]1CCc2cc(OC)c(OC)c(OC)c2-c2ccc(SC)c(=O)cc21`, the concentration for total growth inhibition (TGI) is 0.0436 µM with KM12 colon; 29.5 µM in the assay with K-562 leukemia; more than 100 µM with OVCAR-5 ovarian; 0.0901 µM in the assay on HCT-15 colon; 0.0491 µM with SF-539 CNS; 0.0586 µM with HCT-116 colon. This compound also had a concentration for total growth inhibition (TGI) in the assay on A549 NSCLC of more than 100 µM.
With `COC1(OC)c2ccccc2C2(O)c3ccccc3C(=O)C12` (centres undefined), the TGI with KM12 colon, in the assay with K-562 leukemia, with OVCAR-5 ovarian, in the assay with HCT-15 colon, in the assay on SF-539 CNS and in the assay on HCT-116 colon was more than 100 µM each time. Moreover, the concentration for total growth inhibition (TGI) with SF-295 CNS and in the assay on M14 melanoma was more than 100 µM each time.
Take `CCc1cccc(C(C)CC)c1NC(=O)CC1C(=O)Nc2ccccc2S1=O` (centres undefined): the concentration for total growth inhibition (TGI) in the assay on K-562 leukemia is more than 100 µM; with OVCAR-5 ovarian, more than 100 µM; in the assay on HCT-15 colon, more than 100 µM; in the assay with SF-539 CNS it was 46.2 µM; in the assay with HCT-116 colon it was more than 100 µM; with SF-295 CNS, more than 100 µM. Besides, the TGI in the assay on M14 melanoma was 55.8 µM; with A549 NSCLC it was more than 100 µM.
Turning to `Cc1cccc(N2C(=O)C(=O)C(c3nc4ccccc4s3)C(=O)C2=O)c1C`, the TGI in the assay on K-562 leukemia, in the assay with OVCAR-5 ovarian, in the assay with HCT-15 colon, in the assay with SF-539 CNS, in the assay on HCT-116 colon and in the assay with SF-295 CNS was more than 100 µM each time. Besides, the TGI in the assay with M14 melanoma and with A549 NSCLC was more than 100 µM throughout.
As for `COc1ccc(/C=C/C(C(=O)O)C(=O)O)cc1`, the TGI in the assay with KM12 colon, in the assay on K-562 leukemia, in the assay with OVCAR-5 ovarian, in the assay on HCT-15 colon, in the assay with SF-539 CNS and in the assay on HCT-116 colon was more than 100 µM in each case. Besides, the TGI in the assay on SF-295 CNS, with M14 melanoma and in the assay with A549 NSCLC was more than 100 µM in each case.
Consider `Cc1ccc(N(C(=O)CC(=O)N2N=C(c3ccccc3)C(N=Nc3ccc([N+](=O)[O-])cc3)C2=O)C(=O)c2ccc(Cl)cc2)cc1` (centres undefined), for which the concentration for total growth inhibition (TGI) in the assay on KM12 colon was more than 78.9 µM; in the assay on K-562 leukemia, more than 71.3 µM; with OVCAR-5 ovarian it was more than 45.3 µM; with HCT-15 colon, more than 48.6 µM; in the assay on SF-539 CNS it was 35.6 µM; with HCT-116 colon it was 22.4 µM. The concentration for total growth inhibition (TGI) in the assay on SF-295 CNS was 25.6 µM; in the assay on M14 melanoma, 18.4 µM; in the assay on A549 NSCLC it was more than 51.8 µM.
Regarding `C=CCNC(=S)OCCCCCCCCCC`, the TGI is 26.6 µM in the assay on KM12 colon; 29.6 µM in the assay on K-562 leukemia; 21.8 µM in the assay with OVCAR-5 ovarian; 29.4 µM in the assay with HCT-15 colon; 34 µM with SF-539 CNS; 30.6 µM in the assay with HCT-116 colon. Further, the TGI in the assay with SF-295 CNS amounted to 34.5 µM; in the assay with M14 melanoma it was 32.7 µM; in the assay on A549 NSCLC, 76.2 µM.
Turning to `O=C1CCC(=O)C12CCc1cccc(O)c12`, the TGI with K-562 leukemia, in the assay on HCT-15 colon, in the assay with SF-295 CNS, in the assay on M14 melanoma and in the assay on A549 NSCLC was more than 100 µM throughout.
Take `O=C1NC(=S)NC(=O)C1=Cc1ccc2ccccc2n1`: the TGI with KM12 colon, with K-562 leukemia, in the assay on OVCAR-5 ovarian, in the assay on HCT-15 colon, in the assay on SF-539 CNS and with HCT-116 colon was more than 100 µM each time. The total growth inhibition concentration (TGI) in the assay on SF-295 CNS, in the assay on M14 melanoma and in the assay with A549 NSCLC was more than 100 µM in each case.
With `CC1=N/C(=C\c2cccc3ccccc23)C(=O)O1`, the TGI in the assay with KM12 colon, in the assay on K-562 leukemia, in the assay on OVCAR-5 ovarian, in the assay on HCT-15 colon, with SF-539 CNS and in the assay with HCT-116 colon was more than 100 µM in each case. Further, the concentration for total growth inhibition (TGI) with SF-295 CNS, with M14 melanoma and in the assay with A549 NSCLC was more than 100 µM throughout.
Turning to `N#Cc1nc(Nc2ccc([N+](=O)[O-])cc2)sc1N`, the TGI with KM12 colon was more than 100 µM; in the assay on K-562 leukemia, more than 100 µM; in the assay on OVCAR-5 ovarian it was more than 100 µM; in the assay on HCT-15 colon, more than 100 µM; in the assay on SF-539 CNS it was 18.7 µM; with HCT-116 colon, more than 100 µM. Moreover, the total growth inhibition concentration (TGI) in the assay on SF-295 CNS was more than 100 µM; with M14 melanoma it was 66.8 µM; in the assay on A549 NSCLC it was more than 100 µM.
As to `NC(=S)N/N=C(\C(=O)Nc1ccc(Cl)c(Cl)c1)C1=NN(c2ccccc2)C(c2cccc([N+](=O)[O-])c2)CC1=O` (centres undefined), the concentration for total growth inhibition (TGI) in the assay on KM12 colon is more than 100 µM; in the assay with K-562 leukemia, 65.5 µM; with OVCAR-5 ovarian, more than 100 µM; with HCT-15 colon, more than 100 µM; in the assay on SF-539 CNS, 50.8 µM; with HCT-116 colon, 11.6 µM. The values for the concentration for total growth inhibition (TGI) in the assay on SF-295 CNS, in the assay on M14 melanoma and with A549 NSCLC were 57.2 µM, more than 100 µM and more than 100 µM, respectively.
For `CC1=C(c2cc(C(=O)Nc3cccc(C(F)(F)F)c3)nc(NC#N)n2)Sc2ccccc2N1`, the TGI in the assay with KM12 colon, in the assay with K-562 leukemia, in the assay with OVCAR-5 ovarian, with HCT-15 colon, in the assay on SF-539 CNS and with HCT-116 colon was more than 100 µM each time. The TGI with SF-295 CNS, with M14 melanoma and in the assay on A549 NSCLC was more than 100 µM throughout.
For `O=C1CCC2CCOc3ccc(O)c1c32` (centres undefined), the TGI with KM12 colon, with K-562 leukemia, in the assay on OVCAR-5 ovarian, with HCT-15 colon, in the assay on SF-539 CNS and in the assay with HCT-116 colon was more than 100 µM in each case. For the same compound, the total growth inhibition concentration (TGI) in the assay with SF-295 CNS, in the assay with M14 melanoma and in the assay with A549 NSCLC was more than 100 µM in each case.
For the compound `COC(=O)c1ccccc1N=Cc1ccc(N(CCC#N)S(=O)(=O)c2ccccc2)cc1`, the TGI in the assay with KM12 colon, in the assay with K-562 leukemia, in the assay with OVCAR-5 ovarian, in the assay on HCT-15 colon, with SF-539 CNS and in the assay with HCT-116 colon was more than 100 µM throughout. In addition, the TGI in the assay with SF-295 CNS, in the assay on M14 melanoma and in the assay on A549 NSCLC was more than 100 µM throughout.
Turning to `O=C1c2ccccc2C2(O)Oc3cccc(O)c3C12O` (centres undefined), the concentration for total growth inhibition (TGI) in the assay on KM12 colon, in the assay with K-562 leukemia, in the assay with OVCAR-5 ovarian, in the assay with HCT-15 colon, with SF-539 CNS and in the assay with HCT-116 colon was more than 100 µM each time. Further, the concentration for total growth inhibition (TGI) in the assay with SF-295 CNS, in the assay with M14 melanoma and with A549 NSCLC was more than 100 µM throughout.
Turning to `Cn1cnc([N+](=O)[O-])c1Sc1nnc(C(F)(F)F)n1C`, the concentration for total growth inhibition (TGI) was more than 100 µM in the assay with KM12 colon; 63.6 µM with K-562 leukemia; more than 100 µM in the assay on OVCAR-5 ovarian; 65.7 µM in the assay on SF-539 CNS; 32.5 µM with HCT-116 colon; more than 100 µM in the assay on SF-295 CNS. Also, the values for the TGI with M14 melanoma and in the assay with A549 NSCLC were 37.2 µM and more than 100 µM, respectively.
Take `CC1(CO)C(=O)OC12CCCCC2` (centres undefined): the TGI in the assay with KM12 colon, in the assay on K-562 leukemia, in the assay on SF-539 CNS, with HCT-116 colon, in the assay on SF-295 CNS and in the assay with M14 melanoma was more than 100 µM in each case. The compound further had a concentration for total growth inhibition (TGI) with A549 NSCLC of more than 100 µM.
For the compound `Cc1nn(C)c(=S)n(C)c1=O`, the concentration for total growth inhibition (TGI) was more than 100 µM in the assay on K-562 leukemia; 53.8 µM with OVCAR-5 ovarian; more than 100 µM in the assay on HCT-15 colon; 21.9 µM with SF-539 CNS; 10.8 µM in the assay on HCT-116 colon; more than 100 µM in the assay on SF-295 CNS. The concentration for total growth inhibition (TGI) in the assay with M14 melanoma is more than 100 µM; with A549 NSCLC, 23.8 µM.
